From the supplement of paper PMC10331698
± gives the standard deviation of the averaged measurements.

Columns and labels:
Experiment in all cases: level (log10 ratio to DMSO vehicle control); higher = higher biomarker level / cell amount than vehicle control
Details in all cases: in DMSO
[1] = compound: O=C(O)C(F)(F)C(F)(F)C(F)(F)C(F)(F)C(F)(F)C(F)(F)C(F)(F)C(F)(F)C(F)(F)C(F)(F)C(F)(F)C(F)(F)C(F)(F)F [Perfluorotetradecanoic acid]
Method: (§1)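 BioMAP Diversity Plus panel of 12 human primary cell co-culture systems (3C, 4H, LPS, SAg, BT, BF4T, BE3C, CASM3C, HDF3CGF, KF3CT, MyoF, Mphg). Compounds were added 1 h before stimulation and left for 24 h (MyoF 48 h; BT 72 h for soluble read-outs or 6 d for IgG). Biomarkers were read by ELISA, cytotoxicity by SRB, PBMC viability and proliferation by Alamar Blue. Each well value was divided by the mean of 8 DMSO control wells on the same plate and log10 transformed; duplicate blinded samples were tested at 4 concentrations.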

[2] = compound: O=S(=O)(O)C(F)(F)C(F)(F)C(F)(F)C(F)(F)C(F)(F)C(F)(F)C(F)(F)C(F)(F)F [Potassium perfluorooctanesulfonate]
Method: as §1

[3] = compound: O=C(O)C(F)(F)C(F)(F)C(F)(F)C(F)(F)C(F)(F)C(F)(F)C(F)(F)C(F)(F)C(F)(F)C(F)(F)C(F)(F)C(F)(F)F [Perfluorotridecanoic acid]
Method: as §1

[4] = compound: O=S(=O)(O)C(F)(F)C(F)(F)C(F)(F)C(F)(F)F [Perfluorobutanesulfonic acid]
Method: as §1

[5] = compound: OCC(F)(F)C(F)(F)C(F)(F)C(F)(F)C(F)(F)C(F)F [1H,1H,7H-Dodecafluoro-1-heptanol]
Method: as §1

Azathioprine = compound: Cn1cnc([N+](=O)[O-])c1Sc1ncnc2[nH]cnc12 [Azathioprine]
Method: as §1

Test System | level (log10) ([1]; 6700 nM) | level (log10) ([1]; 20000 nM) | level (log10) ([2]; 6700 nM) | level (log10) ([2]; 20000 nM) | level (log10) ([2]; 60000 nM) | level (log10) ([3]; 1500 nM) | level (log10) ([3]; 4400 nM) | level (log10) ([3]; 13000 nM) | level (log10) ([3]; 40000 nM) | level (log10) ([4]; 6700 nM) | level (log10) ([4]; 20000 nM) | level (log10) ([4]; 60000 nM) | level (log10) ([5]; 6700 nM) | level (log10) ([5]; 20000 nM) | level (log10) ([5]; 60000 nM) | level (log10) (Azathioprine; 1400 nM) | level (log10) (Azathioprine; 4200 nM) | level (log10) (Azathioprine; 13000 nM) | level (log10) (Azathioprine; 38000 nM)
BE3C:CXCL8/IL-8 | -0.005 ± 0.055 | 0.0365 ± 0.052 | -0.053 ± 0.065 | -0.112 ± 0.035 | -0.082 ± 0.024 | -0.002 ± 0.045 | 0.01 ± 0.045 | -0.0215 ± 0.00071 | 0.0115 ± 0.00071 | 0.0075 ± 0.035 | 0.013 ± 0.028 | 0.0005 ± 0.0092 | 0.0245 ± 0.053 | 0.0005 ± 0.032 | -0.009 ± 0.014 | -0.012 ± 0.059 | -0.013 ± 0.054 | -0.052 | -0.088 ± 0.013
BE3C:CXCL9/MIG | -0.016 ± 0.02 | -0.006 ± 0.017 | 0.0095 ± 0.0064 | -0.014 ± 0.024 | -0.039 ± 0.021 | -0.0015 ± 0.015 | -0.0045 ± 0.0035 | -0.014 ± 0.0099 | -0.0125 ± 0.013 | 0.01 ± 0.034 | 0.0025 ± 0.023 | 0.013 ± 0.0057 | 0.0135 ± 0.0021 | 0.003 ± 0.014 | 0.0115 ± 0.013 | -0.006 ± 0.0085 | 0.0005 ± 0.0035 | -0.0025 ± 0.013 | -0.0015 ± 0.013
BE3C:CXCL10/IP-10 | 0.008 ± 0.0042 | -0.0275 ± 0.019 | -0.0455 ± 0.0035 | -0.505 ± 0.0057 | -0.589 ± 0.014 | -0.0015 ± 0.029 | -0.019 ± 0.027 | -0.038 ± 0.03 | -0.0365 ± 0.056 | 0.009 ± 0.038 | -0.0015 ± 0.028 | 0.0005 ± 0.018 | 0.0055 ± 0.028 | 0.004 ± 0.021 | 0.0125 ± 0.012 | 0.0015 ± 0.028 | 0.0115 ± 0.028 | 0.001 ± 0.024 | 0.001 ± 0.0085
BE3C:CXCL11/I-TAC | -0.073 ± 0.052 | -0.0135 ± 0.071 | -0.002 ± 0.0042 | -0.113 ± 0.012 | -0.203 ± 0.024 | 0.007 ± 0.0014 | -0.048 ± 0.027 | -0.089 ± 0.021 | 0 ± 0.0085 | 0.0115 ± 0.012 | 0.0065 ± 0.00071 | 0.007 ± 0.0071 | 0.003 ± 0.02 | 0.0115 ± 0.012 | 0.007 ± 0.021 | -0.0205 ± 0.035 | 0.008 ± 0.0028 | 0.01 ± 0.031 | 0.025 ± 0.051
BE3C:EGFR | 0.01 ± 0.014 | 0.0145 ± 0.044 | -0.012 ± 0.021 | -0.173 ± 0.043 | -0.182 ± 0.071 | 0.0145 ± 0.04 | -0.008 ± 0.031 | 0.0005 ± 0.022 | 0.006 ± 0.0014 | -0.0045 ± 0.021 | 0 ± 0.018 | 0.0005 ± 0.0092 | 0.0125 ± 0.0092 | -0.0005 ± 0.0092 | 0.0095 ± 0.0021 | 0.007 ± 0.02 | -0.0125 ± 0.0035 | -0.0055 ± 0.005 | -0.0095 ± 0.019
BE3C:HLA-DR | -0.013 ± 0.041 | -0.0135 ± 0.06 | -0.012 ± 0.018 | -0.194 ± 0.023 | -0.191 ± 0.042 | -0.0105 ± 0.04 | -0.0325 ± 0.013 | -0.0355 ± 0.0078 | -0.0195 ± 0.019 | -0.003 | 0 ± 0.0028 | 0.0035 ± 0.018 | 0.0155 ± 0.032 | -0.0015 ± 0.042 | -0.0095 ± 0.015 | -0.0075 ± 0.021 | -0.0095 ± 0.0021 | -0.0165 ± 0.021 | -0.032 ± 0.044
BE3C:IL-1alpha | 0 ± 0.033 | 0.0145 ± 0.005 | 0.022 ± 0.0042 | 0.02 ± 0.0071 | -0.0105 ± 0.03 | 0.027 ± 0.04 | -0.0165 ± 0.0078 | 0.0035 ± 0.023 | 0.024 ± 0.0057 | -0.0175 ± 0.012 | -0.013 ± 0.0085 | -0.0075 ± 0.012 | 0.0085 ± 0.021 | 0.0045 ± 0.0092 | 0.024 ± 0.0057 | -0.012 ± 0.0099 | 0.0045 ± 0.011 | -0.019 ± 0.0085 | -0.031 ± 0.051
BF4T:CCL2/MCP-1 | 0.0095 ± 0.016 | 0.0045 ± 0.012 | 0.005 ± 0.072 | 0.0255 ± 0.022 | 0.07 ± 0.016 | 0.025 ± 0.0028 | 0.0195 ± 0.028 | 0.035 ± 0.0042 | 0.0175 ± 0.013 | 0.028 ± 0.0014 | 0.026 ± 0.024 | 0.033 ± 0.018 | 0.022 ± 0.05 | 0.0085 ± 0.057 | 0.009 ± 0.02 | 0.0185 ± 0.015 | 0.0025 ± 0.019 | -0.006 ± 0.011 | -0.021 ± 0.0099
BF4T:CCL26/Eotaxin-3 | -0.074 ± 0.0057 | -0.057 ± 0.059 | -0.0775 ± 0.074 | -0.146 ± 0.056 | -0.126 ± 0.0064 | -0.0035 ± 0.052 | -0.0725 ± 0.022 | -0.089 ± 0.04 | -0.0555 ± 0.026 | -0.057 ± 0.09 | -0.014 ± 0.035 | -0.003 ± 0.047 | 0.0025 ± 0.043 | -0.0005 ± 0.036 | 0.013 ± 0.028 | 0.0215 ± 0.059 | 0.025 ± 0.058 | 0.007 ± 0.014 | -0.0025 ± 0.032
BF4T:CD54/ICAM-1 | -0.002 ± 0.0099 | 0.0175 ± 0.025 | 0.0055 ± 0.032 | 0.0025 ± 0.012 | 0.0215 ± 0.035 | 0.01 ± 0.023 | 0.0115 ± 0.015 | -0.01 ± 0.0028 | 0.0115 ± 0.025 | -0.027 ± 0.0085 | -0.002 ± 0.0014 | -0.0115 ± 0.019 | 0.0045 ± 0.0064 | 0.004 ± 0.014 | 0.006 ± 0.013 | 0.007 ± 0.02 | -0.0025 ± 0.013 | -0.012 ± 0.0071 | -0.0155 ± 0.022
BF4T:CD90 | -0.0125 ± 0.011 | -0.005 ± 0.0042 | 0.0085 ± 0.0064 | -0.0075 ± 0.00071 | 0.0075 ± 0.019 | -0.0015 ± 0.016 | -0.002 ± 0.016 | -0.001 ± 0.013 | 0.005 ± 0.0014 | -0.007 ± 0.0042 | -0.008 ± 0.021 | -0.015 ± 0.011 | -0.0045 ± 0.0035 | -0.0085 ± 0.012 | -0.0035 ± 0.015 | -0.0025 ± 0.00071 | -0.0075 ± 0.0035 | -0.0305 ± 0.023 | -0.024 ± 0.018
BF4T:CD106/VCAM-1 | -0.011 ± 0.014 | -0.037 ± 0.031 | 0.0115 ± 0.015 | -0.014 ± 0.0099 | 0.01 ± 0.052 | 0.005 ± 0.065 | 0.007 ± 0.028 | 0.0035 ± 0.0064 | -0.0205 ± 0.0092 | -0.0175 ± 0.0078 | -0.0325 ± 0.046 | -0.021 ± 0.0028 | -0.0065 ± 0.039 | -0.0035 ± 0.013 | 0.011 ± 0.031 | -0.0185 ± 0.015 | -0.026 ± 0.025 | -0.038 | -0.139 ± 0.016
BF4T:CXCL8/IL-8 | 0.0325 ± 0.012 | 0.0275 ± 0.028 | 0.0005 ± 0.052 | -0.0105 ± 0.047 | 0.0205 ± 0.0078 | 0.023 ± 0.031 | 0.005 ± 0.025 | 0.0175 ± 0.019 | 0.028 ± 0.016 | -0.0205 ± 0.0064 | 0.006 ± 0.0057 | 0.0095 ± 0.013 | 0.016 ± 0.051 | 0.0355 ± 0.04 | 0.0205 ± 0.03 | -0.013 ± 0.011 | -0.0325 ± 0.0064 | -0.0455 ± 0.016 | -0.0405 ± 0.016
BF4T:IL-1alpha | -0.014 ± 0.013 | 0.0235 ± 0.032 | 0.003 ± 0.0028 | 0.0065 ± 0.0078 | 0.0125 ± 0.044 | 0.016 ± 0.025 | -0.0195 ± 0.011 | -0.009 ± 0.02 | 0.017 ± 0.018 | 0.0135 ± 0.00071 | 0.0135 ± 0.016 | 0.011 ± 0.016 | -0.006 ± 0.024 | -0.006 ± 0.0099 | -0.0085 ± 0.012 | -0.0055 ± 0.019 | -0.0015 ± 0.0092 | -0.009 ± 0.0057 | 0.0005 ± 0.033
BF4T:Keratin 8/18 | -0.0135 ± 0.015 | 0.0195 ± 0.032 | -0.0035 ± 0.022 | 0.01 ± 0.014 | 0.0385 ± 0.053 | 0.0145 ± 0.043 | -0.0005 ± 0.013 | -0.0105 ± 0.015 | 0.0135 ± 0.023 | -0.0245 ± 0.028 | -0.0145 ± 0.011 | -0.0045 ± 0.015 | -0.0025 ± 0.0021 | -0.0055 ± 0.012 | 0.004 ± 0.014 | 0.0075 ± 0.026 | -0.0055 ± 0.0035 | -0.0115 ± 0.013 | 0.0115 ± 0.026
